In general, IC50 refers to the point on the concentration scale where inhibition reaches its midpoint.

The experiment concerns the target T1, BACE2 (Homo sapiens, UniProt Q9Y5Z0).
T1 construct: BACE2 enzyme ectodomain (derived from plasmid “pET17b-T7-hu proBACE2”) was prepared as described in Ostermann et al; T7 tag (N); made in house
T1 sequence (Q9Y5Z0 21-473 limits assumed): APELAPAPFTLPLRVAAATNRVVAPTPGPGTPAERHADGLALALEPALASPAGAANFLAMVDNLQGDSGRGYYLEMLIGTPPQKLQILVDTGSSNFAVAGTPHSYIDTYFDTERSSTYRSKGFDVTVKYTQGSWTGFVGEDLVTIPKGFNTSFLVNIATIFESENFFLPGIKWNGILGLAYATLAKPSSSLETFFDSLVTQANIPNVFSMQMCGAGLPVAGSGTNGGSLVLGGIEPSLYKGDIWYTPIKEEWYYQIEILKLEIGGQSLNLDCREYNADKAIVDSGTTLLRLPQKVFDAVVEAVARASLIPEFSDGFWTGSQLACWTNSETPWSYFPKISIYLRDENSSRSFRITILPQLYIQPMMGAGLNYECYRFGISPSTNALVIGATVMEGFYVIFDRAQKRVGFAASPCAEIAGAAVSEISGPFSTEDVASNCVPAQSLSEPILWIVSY
The experiment in a line: Fluorescent-peptide cleavage assay for BACE2 inhibition. To be noted: BACE2 enzyme ectodomain, fluorescent peptide WS EVNLD AEFRC-MR121, assay buffer pH 4.5, room temperature. Format: biochemical. The procedure: Fluorescent-Peptide Cleavage Assay for BACE2 Inhibition
The pro-enzyme was stored at 4° C. at a concentration of 70 μg/ml.
A fluorescent peptide with the amino acid sequence WS EVNLD AEFRC-MR121 was synthesised and a stock solution of 1.5 mM in DMSO prepared and stored at −20° C. MR121 is a fluorophore with an excitation wavelength of 630 nm and emission wavelength of 695 nm. The MR121 fluorescence is quenched by the N-terminal tryptophan until the peptide is cleaved by BACE2.
Assays were all made in a Corning 384-well black polystyrene non-binding surface microtitre plate with clear flat bottom and using a Plate:Vision (Perkin Elmer) fluorescence reader. To perform the assay an 80 nM solution of BACE2 was prepared in assay buffer (assay buffer is 100 mM Na-acetate; 20 mM EDTA; 0.05% BSA; pH 4.5) and incubated at room temperature for 1 hour to activate the enzyme. 39 μl of the activated BACE2 was placed in each assay well, followed by 1 μl compound to be tested at an appropriate concentration in 100% DMSO. The plate was then mixed and incubated for 10 minutes at room temperature.
The assay readout is the rate of change of fluorescence intensity giving a relative measure of BACE2 activity. Small values correspond to high inhibition and larger values to low inhibition. […] IC50 values were determined using these assay values generated for a range of inhibitor concentrations and the curve fitting software XLfit (IDBS) using the Sigmoidal Dose-Response Model.

Take `Cc1cc(C(=O)Nc2cccc([C@]3(C)CC(=O)N(C)C(N)=N3)c2)on1` [Example 6, 3-Methyl-isoxazole-5-carboxylic acid [3-((S)-2-amino-1,4-dimethyl-6-oxo-1,4,5,6-tetrahydro-pyrimidin-4-yl)-phenyl]amide]: the IC50 amounted to 307 nM. For the molecule `CN1C(=O)C(C)(C)[C@@](C)(c2cccc(NC(=O)c3ccc(Cl)cn3)c2)N=C1N` [Example 94, 5-Chloro-pyridine-2-carboxylic acid [3-((R)-2-amino-1,4,5,5-tetramethyl-6-oxo-1,4,5,6-tetrahydro-pyrimidin-4-yl)-phenyl]amide], the IC50 came out at 20 nM.

`CN1C(=O)C[C@@](C)(c2cccc(NC(=O)c3ccc(=O)n(C)n3)c2)N=C1N` [Example 21, 1-Methyl-6-oxo-1,6-dihydro-pyridazine-3-carboxylic acid [3-((S)-2-amino-1,4-dimethyl-6-oxo-1,4,5,6-tetrahydro-pyrimidin-4-yl)-phenyl]amide] displayed an IC50 of 4200 nM. Turning to `CN1C(=O)C(C)(C)[C@@](C)(c2cc(NC(=O)c3ccc(Cl)cn3)ccc2F)N=C1N` [Example 53, 5-Chloro-pyridine-2-carboxylic acid [3-((S)-2-amino-1,4,5,5-tetramethyl-6-oxo-1,4,5,6-tetrahydro-pyrimidin-4-yl)-4-fluoro-phenyl]amide], the IC50 worked out at 8 nM.

Take `CN1C(=O)C[C@@](C)(c2cc(NC(=O)c3ccccn3)ccc2F)N=C1N` [Example 47, Pyridine-2-carboxylic acid [3-((S)-2-amino-1,4-dimethyl-6-oxo-1,4,5,6-tetrahydro-pyrimidin-4-yl)-4-fluoro-phenyl]amide]: the IC50 was found to be 8 nM. `CN1C(=O)C[C@@](C)(c2cccc(NC(=O)c3ncc(C(F)(F)F)cc3Cl)c2)N=C1N` [Example 70, 3-Chloro-5-trifluoromethyl-pyridine-2-carboxylic acid [3-((S)-2-amino-1,4-dimethyl-6-oxo-1,4,5,6-tetrahydro-pyrimidin-4-yl)-phenyl]-amide] returned an IC50 of 16 nM. For `Cc1cc(Cl)cnc1C(=O)Nc1ccc(F)c([C@@]2(C)N=C(N)N(C)C(=O)C2(C)C)c1` [Example 99, 5-Chloro-3-methyl-pyridine-2-carboxylic acid [3-((S)-2-amino-1,4,5,5-tetramethyl-6-oxo-1,4,5,6-tetrahydro-pyrimidin-4-yl)-4-fluoro-phenyl]amide], the IC50 was determined as 13 nM. Molecule `Cc1nc(C(=O)Nc2cccc([C@]3(C)CC(=O)N(C)C(N)=N3)c2)co1` [Example 38, 2-Methyl-oxazole-4-carboxylic acid [3-((S)-2-amino-1,4-dimethyl-6-oxo-1,4,5,6-tetrahydro-pyrimidin-4-yl)-phenyl]-amide] yielded a half-inhibitory concentration (IC50) of 9 nM. In turn, `CCOc1cc(C(F)(F)F)cnc1C(=O)Nc1cccc([C@]2(C)CC(=O)N(C)C(N)=N2)c1` [Example 74, 3-Ethoxy-5-trifluoromethyl-pyridine-2-carboxylic acid [3-((S)-2-amino-1,4-dimethyl-6-oxo-1,4,5,6-tetrahydro-pyrimidin-4-yl)-phenyl]-amide] displayed a half-maximal inhibitory concentration (IC50) of 79 nM. Against the preceding molecule, the IC50 is about 8.8-fold higher. `Cc1cccc(C(=O)Nc2cccc([C@]3(C)CC(=O)N(C)C(N)=N3)c2)n1` [Example 32, 6-Methyl-pyridine-2-carboxylic acid [3-((S)-2-amino-1,4-dimethyl-6-oxo-1,4,5,6-tetrahydro-pyrimidin-4-yl)-phenyl]-amide] returned a 50% inhibitory concentration (IC50) of 220 nM. `CN1C(=N)N[C@](C)(c2cc(NC(=O)c3ccc(C(F)(F)F)cn3)ccc2F)CC1=O` [Example 48, 5-Trifluoromethyl-pyridine-2-carboxylic acid [3-((S)-2-amino-1,4-dimethyl-6-oxo-1,4,5,6-tetrahydro-pyrimidin-4-yl)-4-fluoro-phenyl]amide]: the half-inhibitory concentration (IC50) is 9 nM. Regarding `CC[C@@]1(c2cccc(NC(=O)c3ncc(Cl)cn3)c2)CC(=O)N(C)C(N)=N1` [Example 44, 5-Chloro-pyrimidine-2-carboxylic acid [3-((S)-2-amino-4-ethyl-1-methyl-6-oxo-1,4,5,6-tetrahydro-pyrimidin-4-yl)-phenyl]-amide], half-maximal inhibition (IC50) required 7 nM. For the molecule `CN1C(=O)C[C@@](C)(c2cccc(NC(=O)c3nccc4ccccc34)c2)N=C1N` [Example 56, Isoquinoline-1-carboxylic acid [3-((S)-2-amino-1,4-dimethyl-6-oxo-1,4,5,6-tetrahydro-pyrimidin-4-yl)-phenyl]-amide], the IC50 was 2980 nM. The same measure for `Cc1cc(C(=O)Nc2cccc([C@]3(C)CC(=O)N(C)C(N)=N3)c2)nn1C` [Example 7, 1,5-Dimethyl-1H-pyrazole-3-carboxylic acid [3-((S)-2-amino-1,4-dimethyl-6-oxo-1,4,5,6-tetrahydro-pyrimidin-4-yl)-phenyl]amide]: 1010 nM; for `CN1C(=O)C[C@@](C)(c2cccc(NC(=O)c3cc4ccccc4cn3)c2)N=C1N` [Example 57, Isoquinoline-3-carboxylic acid [3-((S)-2-amino-1,4-dimethyl-6-oxo-1,4,5,6-tetrahydro-pyrimidin-4-yl)-phenyl]amide]: 110 nM; for `COc1ccc(C(=O)Nc2ccc(F)c([C@@]3(C)N=C(N)N(C)C(=O)C3(C)C)c2)nc1` [Example 113, 5-Methoxy-pyridine-2-carboxylic acid [3-((S)-2-amino-1,4,5,5-tetramethyl-6-oxo-1,4,5,6-tetrahydro-pyrimidin-4-yl)-4-fluoro-phenyl]amide]: 21 nM. Molecule `CN1C(=O)C(C)(C)[C@@](C)(c2cc(NC(=O)c3ccc(C#N)cn3)ccc2F)N=C1N` [Example 115, 5-Cyano-pyridine-2-carboxylic acid [3-((S)-2-amino-1,4,5,5-tetramethyl-6-oxo-1,4,5,6-tetrahydro-pyrimidin-4-yl)-4-fluoro-phenyl]amide] had a half-maximal inhibitory concentration (IC50) of 63 nM. Under `CN1C(=O)C[C@@](C)(c2cccc(NC(=O)c3nc(Cl)ccc3Cl)c2)N=C1N` [Example 54, 3,6-Dichloro-pyridine-2-carboxylic acid [3-((S)-2-amino-1,4-dimethyl-6-oxo-1,4,5,6-tetrahydro-pyrimidin-4-yl)-phenyl]-amide] stands 976 nM; under `Cc1ccnc(C(=O)Nc2cccc([C@]3(C)CC(=O)N(C)C(N)=N3)c2)c1` [Example 30, 4-Methyl-pyridine-2-carboxylic acid [3-((S)-2-amino-1,4-dimethyl-6-oxo-1,4,5,6-tetrahydro-pyrimidin-4-yl)-phenyl]-amide], 150 nM. For `CN1C(=O)C[C@@](C)(c2cccc(NC(=O)c3ccc(C(F)(F)F)cn3)c2)N=C1N` [Example 11, 5-Trifluoromethyl-pyridine-2-carboxylic acid [3-((S)-2-amino-1,4-dimethyl-6-oxo-1,4,5,6-tetrahydro-pyrimidin-4-yl)-phenyl]amide], inhibition was half-maximal at 28 nM (IC50). `CN1C(=O)C(C)(C)[C@@](C)(c2cc(NC(=O)c3ccc(C(F)(F)F)cn3)ccc2F)N=C1N` [Example 110, 5-Trifluoromethyl-pyridine-2-carboxylic acid [3-((S)-2-amino-1,4,5,5-tetramethyl-6-oxo-1,4,5,6-tetrahydro-pyrimidin-4-yl)-4-fluoro-phenyl]amide] yielded a concentration for half-maximal inhibition (IC50) of 20 nM.

The molecule `C[C@@]1(c2cccc(NC(=O)c3ccc(Cl)cn3)c2)CC(=O)NC(N)=N1` [Example 51, 5-Chloro-pyridine-2-carboxylic acid [3-((S)-2-amino-4-methyl-6-oxo-1,4,5,6-tetrahydro-pyrimidin-4-yl)-phenyl]amide] had an IC50 of 33 nM. This IC50 lies about 1.6-fold higher than the previous one.

With `Cc1nc(C(=O)Nc2cccc([C@]3(C)CC(=O)N(C)C(N)=N3)c2)c(C)o1` [Example 4, 2,5-Dimethyl-oxazole-4-carboxylic acid [3-((S)-2-amino-1,4-dimethyl-6-oxo-1,4,5,6-tetrahydro-pyrimidin-4-yl)-phenyl]amide], the 50% inhibitory concentration (IC50) amounted to 98 nM. The molecule `Cc1nc(C)c(C(=O)Nc2cccc([C@]3(C)CC(=O)N(C)C(N)=N3)c2)o1` [Example 5, 2,4-Dimethyl-oxazole-5-carboxylic acid [3-((S)-2-amino-1,4-dimethyl-6-oxo-1,4,5,6-tetrahydro-pyrimidin-4-yl)-phenyl]amide] returned an IC50 of 121 nM. The molecule `CN1C(=O)C(C)(C)[C@@](C)(c2cc(NC(=O)c3cnc(Cl)cn3)ccc2F)N=C1N` [Example 107, 5-Chloro-pyrazine-2-carboxylic acid [3-((S)-2-amino-1,4,5,5-tetramethyl-6-oxo-1,4,5,6-tetrahydro-pyrimidin-4-yl)-4-fluoro-phenyl]amide] yielded an IC50 of 27 nM.
